Laboratory results taken from US9067928B2 (Genentech, Inc., priority 2008, dated 2015).
pIC50: −log10 of the molar value.

Target: T1, Bcl-xL (Homo sapiens, UniProt Q07817)
T1 construct: made in house
Test: Alpha Screen Bcl-xL binding assay, competition with Bim26-mer
Settings: values listed in the order of Table 1; read-out: Alphascreen results (IC50)
Procedure: The measurement of competition of compounds of the invention with Bim26-mer for a Bcl-2 family protein binding site using an Alpha Screen Bcl-xL Binding Assay:
The BH3 proteins ALPHASCREEN™ assay was used to identify active small molecules Bcl-2 family protein screen. e.g., Bcl-xL, hmMcl-1 screen. To determine an accurate estimation of the IC50, the compounds were routinely tested at starting concentrations, 100 μM and/or 1 μM and serially titrated 3 fold over 11 dilutions.
The beads come in close proximity when the protein and the peptides interact. Donor beads contain a photosensitiser that converts oxygen to an excited form of O2 at an excitation of 680 nm. Energy is transformed from the singlet oxygen and reacts with chemiluminescers on the acceptor bead, resulting in light emission at 520-620 nm. […] With this information, the IC50 of each compound was calculated
GST-Bcl-xL, GST-hmMcl-1 and biotinylated GST proteins were prepared in-house and were stored as stock solutions at −80° C. The biotinylated-Bak, and biotinylated-Bim peptides were purchased from Auspep and were stored as 500 μM stock solutions in 100% DMSO at −80° C. The ALPHASCREEN™ GST (Glutathione-S-Transferase) Detection Kit was obtained from Perkin Elmer Lifesciences (Cat #6760603R). The Proxiplates, white 384 well flat-Bottom plates were purchased from Interpath Services, Melbourne (Cat #784075). The seals to cover the plates were purchased from Proscience. Melbourne (Cat#784075). DMSO was purchased from AnalaR. The 384 deep well plates and the Polypropylene 50 μL, V bottom polypropylene compound plates were purchased from Matrical.
Compounds of the invention were prepared as 10 mM stocks with 100% DMSO on the day prior to performing the assay. […] To achieve a final compound concentration of 1 μM, in a separate matrical plate, 28 μL of 100% DMSO and 2 μL of 10 mM compound was added to a well, mixed well. 2 μL of this solution was taken and added to 38 μL of 100% DMSO. 20 μL of this solution was added to the test matrical plate. Several control compounds were included in the test plates. For the control wells 15 μL 100% DMSO only was added to the appropriate wells of each plate. The compound plates were then serially diluted 2 fold using the MiniTrak. Once titrations were complete, the compound plate was immediately covered with a foil seal to prevent evaporation.
The assay and bead buffers were prepared fresh. Each titrated compound plate was assayed in duplicate. The following volumes were sufficient to run 12 Proxiplates (4 assay plates run in duplicate in each of Bclxl, hmMcl and counter assays)
Protein and Peptide Preparation; and Assay Performance • 1. The assay and bead buffers were used to prepare the acceptor and donor solutions. ALPHASCREEN™ beads are light sensitive and therefore prepared in a darkened room. 2.5 μL of beads were added per 1 mL of buffer. • 2. The volume of protein or peptide to add was calculated using the following formula:
[formula] • C1=Final Concentration of protein/peptide • C2=Stock Concentration of protein/peptide • V1=Total Volume of Acceptor/Donor Solution • V2=Volume of stock protein/Peptide to add to Acceptor/Donor solution • 3. The assay components were prepared as separate Acceptor and Donor Solutions. The Acceptor Solution contained Acceptor heads and target protein, while the Donor Solution contained Donor beads and biotinylated peptide.
• 4. After the solutions were prepared, they were left to incubate for 30 minutes at room temperature to allow the beads to bind to the protein and the peptide. • 5. 50 μL of Bcl-xL solution, 50 μL of hmMcl-1 solution and 50 µL of biotinylated-GST were added into separate deep wells on an assay plate. A control […]. Assay/Bead buffer was added separate well plates (no protein). • 6.

T1 sequence (Q07817 whole entry, species assumed): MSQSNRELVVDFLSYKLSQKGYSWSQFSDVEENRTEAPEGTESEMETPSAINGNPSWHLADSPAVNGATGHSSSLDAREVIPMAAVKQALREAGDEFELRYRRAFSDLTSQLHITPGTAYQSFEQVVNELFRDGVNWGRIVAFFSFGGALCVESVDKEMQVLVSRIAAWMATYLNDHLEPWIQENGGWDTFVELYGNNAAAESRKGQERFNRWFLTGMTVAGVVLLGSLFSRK

SMILES	pIC50
CN1CCN(C(=O)Nc2nc3ccccc3s2)c2cc(-c3cccc(C(=O)O)n3)ccc21 [Example 3]	5.27
CC(C)COc1ccc(-c2ccc3c(c2)N(C(=O)Nc2nc4ccccc4s2)CCC3)nc1C(=O)O [Example 4]	5.84
O=C(O)c1nc(-c2ccc3c(c2)N(C(=O)Nc2nc4ccccc4s2)CCC3)ccc1OCCOc1ccccc1 [Example 19]	8.70
Nc1cccc(OCc2cccc(-c3ccc(-c4ccc5c(c4)N(C(=O)Nc4nc6ccccc6s4)CCC5)nc3C(=O)O)c2)c1 [Example 41]	8.30
O=C(O)c1nc(-c2ccc3c(c2)N(C(=O)Nc2nc4ccccc4s2)CCC3)ccc1OCCCOc1cccc2cccnc12 [Example 46]	8.00
Cc1ccc(-c2sc(-c3ccc4c(c3)N(C(=O)Nc3nc5ccccc5s3)CCO4)nc2C(=O)O)cc1 [Example 64, 2-(4-(benzo[d]thiazol-2-ylcarbamoyl)-3,4-dihydro-2H-benzo[b][1,4]oxazin-6-yl)-5-p-tolylthiazole-4-carboxylic acid]	6.51
O=C(O)c1nc(-c2ccc3c(c2)N(C(=O)Nc2nc4ccccc4s2)CCC3)sc1Oc1ccc(F)cc1 [Example 65, 2-(1-(benzo[d]thiazol-2-ylcarbamoyl)-1,2,3,4-tetrahydroquinolin-7-yl)-5-(4-fluorophenoxy)thiazole-4-carboxylic acid]	6.64
COc1ccc(-c2sc(-c3ccc4c(c3)N(C(=O)Nc3nc5ccccc5s3)CCO4)nc2C(=O)O)cc1 [Example 66, 2-(4-(benzo[d]thiazol-2-ylcarbamoyl)-3,4-dihydro-2H-benzo[b][1,4]oxazin-6-yl)-5-(4-methoxyphenyl)thiazole-4-carboxylic acid]	6.96
COc1cccc(-c2sc(-c3ccc4c(c3)N(C(=O)Nc3nc5ccccc5s3)CCO4)nc2C(=O)O)c1 [Example 67, 2-(4-(benzo[d]thiazol-2-ylcarbamoyl)-3,4-dihydro-2H-benzo[b][1,4]oxazin-6-yl)-5-(3-methoxyphenyl)thiazole-4-carboxylic acid]	6.70
COc1ccc(Oc2sc(-c3ccc4c(c3)N(C(=O)Nc3nc5ccccc5s3)CCO4)nc2C(=O)O)cc1 [Example 69, 2-(4-(benzo[d]thiazol-2-ylcarbamoyl)-3,4-dihydro-2H-benzo[b][1,4]oxazin-6-yl)-5-(4-methoxyphenoxy)thiazole-4-carboxylic acid]	6.17
NC(=O)c1nc(-c2ccc3c(c2)N(C(=O)Nc2nc4ccccc4s2)CCC3)sc1Oc1ccc(F)cc1 [Example 70, 2-(1-(benzo[d]thiazol-2-ylcarbamoyl)-1,2,3,4-tetrahydroquinolin-7-yl)-5-{4-fluorophenoxy)thiazole-4-carboxamide]	5.00
COc1ccc(-c2sc(-c3ccc4c(c3)N(C(=O)Nc3nc5ccc(F)cc5s3)CCC4)nc2C(=O)O)cc1 [Example 72, 2-(1-(6-fluorobenzo[d]thiazol-2-ylcarbamoyl)-1,2,3,4-tetrahydroquinolin-7-yl)-5-(4-methoxyphenyl)thiazole-4-carboxylic acid]	5.00
O=C(O)c1nc(-c2ccc3c(c2)N(C(=O)Nc2nc4ccccc4s2)CCO3)sc1CCCSc1ccncc1 [Example 73, 2-(4-(benzo[d]thiazol-2-ylcarbamoyl)-3,4-dihydro-2H-benzo[b][1,4]oxazin-6-yl)-5-(3-(pyridin-4-ylthio)propyl)thiazole-4-carboxylic acid]	8.10
CC(C)(C)OC(=O)Nc1ccc(OCCCc2sc(-c3ccc4c(c3)N(C(=O)Nc3nc5ccccc5s3)CCC4)nc2C(=O)O)cc1 [Example 85, 2-(1-(benzo[d]thiazol-2-ylcarbamoyl)-1,2,3,4-tetrahydroquinolin-7-yl)-5-(3-(4-(tert-butoxycarbonylamino)phenoxy)propyl)thiazole-4-carboxylic acid]	9.30

Results, then the compound that gave them:

pIC50	SMILES
6.41	CN(CCOc1ccccc1)c1sc(-c2ccc3c(c2)N(C(=O)Nc2nc4ccccc4s2)CCO3)nc1C(=O)O [Example 76, 2-(4-(benzo[d]thiazol-2-ylcarbamoyl)-3,4-dihydro-2H-benzo[b][1,4]oxazin-6-yl)-5-(methyl(2-phenoxyethyl)amino)thiazole-4-carboxylic acid]
6.92	O=C(O)c1nc(-c2ccc3c(c2)N(C(=O)Nc2nc4ccccc4s2)CCO3)sc1CCCCc1ccccc1 [Example 77, 2-(4-(benzo[d]thiazol-2-ylcarbamoyl)-3,4-dihydro-2H-benzo[b][1,4]oxazin-6-yl)-5-(4-phenylbutyl)thiazole-4-carboxylic acid]
9.22	O=C(O)c1nc(-c2ccc3c(c2)N(C(=O)Nc2nc4ccccc4s2)CCC3)sc1CCCOc1ccccc1 [Example 78, 2-(1-(benzo[d]thiazol-2-ylcarbamoyl)-1,2,3,4-tetrahydroquinolin-7-yl)-5-(3-phenoxypropyl)thiazole-4-carboxylic acid]
9.15	Nc1cccc(OCCCc2sc(-c3ccc4c(c3)N(C(=O)Nc3nc5ccccc5s3)CCC4)nc2C(=O)O)c1 [Example 82, 5-(3-(3-aminophenoxy)propyl)-2-(1-(benzo[d]thiazol-2-ylcarbamoyl)-1,2,3,4-tetrahydroquinolin-7-yl)thiazole-4-carboxylic acid]
8.30	NCc1ccc(OCCCc2sc(-c3ccc4c(c3)N(C(=O)Nc3nc5ccccc5s3)CCO4)nc2C(=O)O)cc1 [Example 83, 5-(3-(4-(aminomethyl)phenoxy)propyl)-2-(4-(benzo[d]thiazol-2-ylcarbamoyl)-3,4-dihydro-2H-benzo[b][1,4]oxazin-6-yl)thiazole-4-carboxylic acid]
7.19	O=C(O)c1nc(-c2ccc3c(c2)N(C(=O)Nc2nc4ccccc4s2)CCO3)ccc1OCCCc1ccccc1 [Example 88, 6-(4-(benzo[d]thiazol-2-ylcarbamoyl)-3,4-dihydro-2H-benzo[b][1,4]oxazin-6-yl)-3-(3-phenylpropoxy)picolinic acid]
6.63	O=C(O)c1nc(-c2ccc3c(c2)N(C(=O)Nc2cc4ccccn4n2)CCO3)ccc1OCCCc1ccccc1 [Example 89, 3-(3-phenylpropoxy)-6-(4-(pyrazolo[1,5-a]pyridin-2-ylcarbamoyl)-3,4-dihydro-2H-benzo[b][1,4]oxazin-6-yl)picolinic acid]
6.85	CS(=O)(=O)NC(=O)c1nc(-c2ccc3c(c2)N(C(=O)Nc2nc4ccccc4s2)CCO3)ccc1OCCCc1ccccc1 [Example 91, N-(benzo[d]thiazol-2-yl)-6-(6-(methylsulfonylcarbamoyl)-5-(3-phenylpropoxy)pyridin-2-yl)-2H-benzo[b][1,4]oxazin-4(3H)-carboxamide]
7.40	O=C(O)c1nc(-c2ccc3c(c2)N(C(=O)Nc2nc4ccccc4s2)CCC3)sc1Oc1ccc(-n2ncc3cncnc32)cc1 [Example 93, 5-(4-(1H-pyrazolo[3,4-d]pyrimidin-1-yl)phenoxy)-2-(1-(benzo[d]thiazol-2-ylcarbamoyl)-1,2,3,4-tetrahydroquinolin-7-yl)thiazole 4-carboxylic acid]
